Source: ChEMBL document CHEMBL3132768, “Design, synthesis and biological evaluation of TAR and cTAR binders as HIV-1 nucleocapsid inhibitors” (Medchemcomm, 2013)
Activity calls are given as the source filed them. No cut-off for these calls is given here.

What was measured:
Jurkat [1] = assay: Cytotoxicity against human Jurkat cells up to 100 uM after 72 hrs by MTT assay; format: cell-based
[2] = Inhibition of NC-induced HIV1 cTAR destabilization assessed as change in melting temperature by fluorescence quenching assay; design: species or system Human immunodeficiency virus 1
[3] = Inhibition of NC-induced HIV1 TAR destabilization assessed as change in melting temperature by fluorescence quenching assay; design: species or system Human immunodeficiency virus 1
[4] = system: Human immunodeficiency virus 1; assay: Binding affinity to HIV1 cTAR DNA assessed as change in melting temperature by […]
Nucleic Acid [5] = assay: Binding affinity to HIV1 TAR RNA assessed as change in melting temperature by […]; format: nucleic-acid assay; settings: Human immunodeficiency virus 1
[6] = Octanol-water partition co-efficient, log P of the compound by shake flask method; format: physicochemical
[7] = system: Human immunodeficiency virus 1; assay: Antiviral activity against HIV1 infected in human Jurkat cells assessed as inhibition of viral replication by CAT gene-based transcomplementation assay; format: functional, organism-based
Nucleic Acid [8] = assay: Binding affinity to HIV1 TAR/cTAR RNA/DNA duplex assessed as change in melting temperature by […]; format: nucleic-acid assay; settings: Human immunodeficiency virus 1
[9] = Inhibition of NC-induced HIV1 TAR/cTAR annealing assessed as change in melting temperature preincubated for 15 mins before NC addition measured after 15 mins by gel electrophoresis; design: species or system Human immunodeficiency virus 1
[10] = system: Human immunodeficiency virus 1; assay: Antiviral activity against HIV1 infected in human Jurkat cells assessed as inhibition of viral replication after 3 to 4 days; format: functional, organism-based
Jurkat [11] = assay: Drug uptake in human Jurkat cells at 100 uM after 3 hrs by spectrophotometry; format: ADME, cell-based

IC50 [2] [µM] | IC50 [3] [µM] | ΔTm [4] [°C] | ΔTm (Nucleic Acid [5]) [°C] | logP [6] | ΔTm (Nucleic Acid [8]) [°C] | IC50 [9] [µM] | Drug uptake (Jurkat [11]) | SMILES | Activity (Jurkat [1]) | Activity [7] | Activity [10]
2.04 | 3.2 | 13.8 | 16.2 | -2.51 | 3.1 | 21.9 |  | NCCCC(N)C(=O)NCCC(=O)Nc1ccc2c(c1)C(=O)c1ccc(NC(=O)CCNC(=O)C(N)CCCN)cc1C2=O.O=C(O)C(F)(F)F.O=C(O)C(F)(F)F.O=C(O)C(F)(F)F.O=C(O)C(F)(F)F (stereo unspecified) | Non-toxic | inactive | 
36.3 | 42.9 | 1.11 | 1.49 | -2.91 | 0.65 | 95.8 |  | O=C(CCNC(=O)C1CCNCC1)Nc1ccc2c(c1)C(=O)c1ccc(NC(=O)CCNC(=O)C3CCNCC3)cc1C2=O.O=C(O)C(F)(F)F.O=C(O)C(F)(F)F | Non-toxic |  | inactive
13.7 | 17.6 | 1.86 | 0.97 | -2.31 | 0.84 |  |  | NCC1CCC(C(=O)NCCC(=O)Nc2ccc3c(c2)C(=O)c2ccc(NC(=O)CCNC(=O)C4CCC(CN)CC4)cc2C3=O)CC1.O=C(O)C(F)(F)F.O=C(O)C(F)(F)F (stereo unspecified) | Non-toxic |  | inactive
3.84 | 3.71 | 2.14 | 2.88 |  | 1.12 | 44.5 | Not Active | NCCCCC(N)C(=O)NCCC(=O)Nc1ccc2c(c1)C(=O)c1ccc(NC(=O)CCNC(=O)C(N)CCCCN)cc1C2=O (stereo unspecified) |  |  | 
 |  |  |  | -2.51 |  | 42.3 |  | Nc1ccc(CC(N)C(=O)NCCC(=O)Nc2ccc3c(c2)C(=O)c2ccc(NC(=O)CCNC(=O)C(N)Cc4ccc(N)cc4)cc2C3=O)cc1.O=C(O)C(F)(F)F.O=C(O)C(F)(F)F.O=C(O)C(F)(F)F.O=C(O)C(F)(F)F (stereo unspecified) | Non-toxic |  | inactive
15.4 | 13.8 | 2.14 | 2.23 | -2.91 | 1.12 |  |  | NC1(C(=O)NCCC(=O)Nc2ccc3c(c2)C(=O)c2ccc(NC(=O)CCNC(=O)C4(N)CCNCC4)cc2C3=O)CCNCC1.O=C(O)C(F)(F)F.O=C(O)C(F)(F)F.O=C(O)C(F)(F)F.O=C(O)C(F)(F)F | Non-toxic |  | inactive
7.1 | 6.3 | 10.5 | 8.95 | -2.55 | 1.77 | 44.1 |  | NCCC(N)C(=O)NCCC(=O)Nc1ccc2c(c1)C(=O)c1ccc(NC(=O)CCNC(=O)C(N)CCN)cc1C2=O.O=C(O)C(F)(F)F.O=C(O)C(F)(F)F.O=C(O)C(F)(F)F.O=C(O)C(F)(F)F (stereo unspecified) | Non-toxic |  | inactive
11.8 | 10 | 2.14 | 2.79 | -2.98 | 1.12 | 76.8 |  | NCCC(=O)NCCC(=O)Nc1ccc2c(c1)C(=O)c1ccc(NC(=O)CCNC(=O)CCN)cc1C2=O.O=C(O)C(F)(F)F.O=C(O)C(F)(F)F | Non-toxic |  | inactive
22.8 | 21.4 | 1.92 | 2.38 | -2.56 | 0.28 |  |  | NCC(N)C(=O)NCCC(=O)Nc1ccc2c(c1)C(=O)c1ccc(NC(=O)CCNC(=O)C(N)CN)cc1C2=O.O=C(O)C(F)(F)F.O=C(O)C(F)(F)F.O=C(O)C(F)(F)F.O=C(O)C(F)(F)F (stereo unspecified) | Non-toxic |  | inactive
